# “Also recorded” adds a separate entry of the source.
# Tests used:
# [1] = system: T4, HLA-DR, T8, T3, or Tac antigen on the cell surface of ATH8 cells; assay: Cell surface antigens by fluorescent-activated cytofluorometry; format: cell-based; conditions: 1 micromole (printed i), sixteen hours
# Procedure: (§1) The possibility that the S-ODN analogs may interfere with HIV binding to target cells was tested.
# [2] = system: T4 molecule in T4 cells (H9 cells); assay: Specific binding of radiolabelled HIV to T4 molecule
# Procedure: as §1
# [3] = system: exo- and endonuclease P1; assay: Nuclease susceptibility, P1 nuclease; format: in vitro ADME
# Source text: (§2) Several oligodeoxynucleotides were studied with regard to DNase sensitivity, cf. Table 5. These include cytidine homopolymers, ODN-4 (an anti-message 28-mer complementary to the 3' region of the art/trs region of HIV BH10 clone), and myc-1 (a 15-mer complementary to the initiation codon region of the C-myc oncogene). The DNases employed were predominantly endonuclease S1, the exo- and endonuclease P1, and snake venom (SV) phosphodiesterase. The concentration of S1 nuclease was ten-fold higher (100 micromoles/ml) for reactions of oligo-dc, since both the normal and PS analog were degraded extremely slowly be this enzyme. S1 and P1 nuclease digestion proceeded at 2-45 times more slowly for the S-ODNs than for the normal oligomers, with the […] being somewhat more readily digested than the 28-mer.
# [4] = system: de novo HIV DNA synthesis in ATH8 cells; assay: Southern blot of de novo HIV DNA synthesis; format: cell-based; conditions: days 4 and 7
# Source text: Target cells (1×10^7 ATH8 cells) were pretreated with or without S-dC28 at various concentrations for sixteen hours, then treated with Polynrene, exposed to HIV (500 virus particles per cell), resuspended, and cultured in the presence or absence of S-dC28. On days 4 and 7 following the exposure to the virus, high molecular weight DNA was extracted, digested with Asp718 (a Kpn I isoschizomer from Boehringer-tiannheim, Indianapolis, IN), and subjected to Southern blot analysis hybridized with a labelled insert of molecular clone of the env region of HTLV-III (BH10) containing a 1.3 Kb Bgl II fragment.
# FIGS. 6A-6D show the inhibitor effect of the phosphorothioate oligodeoxycytidine analog (S-dC28) on de novo HIV DNA synthesis in target cells. On days 4 and 7 following the exposure to the virus, a substantial amount of viral DNA was detected by Southern blot analysis without antiviral agents.
# On day 4, shown in lanes A-E, and day 7, shown in lanes F-J, following exposure to the virus, high molecular weight DNA was extracted. Lanes A and F contain DNA from ATH8 cells that were exposed to the virus and not protected by S-dC28. Lanes B and G, C and H, D and I, contain DNA from ATH8 cells pretreated and cultured with 1 micromole, 5 micromoles, and 7 micromoles S-dC28, respectively. Lanes E and J contain DNA from ATH8 cells treated with 50 micromoles 2', 3'-dideoxyadenonsine, and lane K contains DNA from ATH8 cells that was not exposed to the virus.
# [5] = Solubility; format: physicochemical; conditions: acetate salts
# Source text: The phosphorothioate oligodeoxynucleotides of the present invention have suitable chemical characteristics, namely, the ability to hybridize with complementary DNA/MRNA under physiological conditions, and better solubility properties relative to methylphosphonates. Moreover, the thioesters are as soluble in biological media as the parent compounds.
# Oligodeoxynucleotides with blocks of phosphorothioates at the 3' or 5' ends were synthesized by automatically changing the oxidation cycle at the required point. […] Introduction of a small amount of ammonia vapor, not aqueous ammonia, by a Pasteur PiPette solubilized all the solids. The yield determined from absorbance at lambda max was about 30%.
# [6] = system: snake venom (SV) phosphodiesterase; assay: Nuclease susceptibility, snake venom phosphodiesterase; format: in vitro ADME
# Source text: as §2
# [7] = system: H9 cells; assay: Cell uptake of 35S-phosphorothioate end-labelled oligomer, H9 cells; format: in vitro ADME; conditions: within several minutes
# Source text: (§3) Phosphatase-resistant 35S-phosphorothioate end-labelled S-dC28 was employed to investigate the permeability of target cells.
# [8] = system: ATH8 cells (printed AT[18); assay: Cell uptake of 35S-phosphorothioate end-labelled oligomer, ATH8 cells; format: in vitro ADME; conditions: within several minutes
# Source text: as §3
# [9] = system: endonuclease S1; assay: Nuclease susceptibility, S1 nuclease; format: in vitro ADME
# Source text: as §2
# [10] = system: HIV p24 gag protein in chronically HIV-infected H9 cells; assay: HIV gag protein expression in chronically HIV-infected H9 cells, indirect immunofluorescence; format: cell-based
# Procedure: The percentage of cells expressing p24 gag protein of HIV was determined by indirect immunofluorescence microscopy by using anti-HIV p24 murine monoclonal antibody.
# Generally, it has been assumed that anti-sense sequences inhibit the expression of various genes by translation arrest, i.e. that they bind to MRNA and block its translation. In order to test this possibility, gag protein synthesis was analyzed in chronically HIV-infected and -producing H9 cells by indirect immunofluorescent assay under a microscope. […] Alternatively, the level of any translation arrest could have been below the threshold of detection by indirect immunofluorescent assay under a microscope. […] Therefore, one mechanism for the antiviral effect could depend on blocking viral replication perhaps prior to, or at the stage of, pro-viral DNA synthesis.
# [11] = system: HIV (HTLV-IIIB) in ATH8 cells; assay: HIV cytopathic effect inhibition (viable ATH8 cells, trypan blue)
# Procedure: FIGS. 1A-1D and Table 1, The target cells (2×10^5 ATH8 cells) in each tube were pretreated with the stated concentration of each oligomer for 16 hours and then incubated with Polybrene for 45 minutes. After centrifugation, each set of pelleted cells was exposed to HIV (500 virions per cell, which is a much higher dose than the minimal cytopathic dose) and incubated for one hour. Complete media (2 ml RPMI1640) supplemented with L-glutamine (4 mti), 2-mercaptoethanol ([…]), penicillin (50 unit/ml), and streptomycin (50 micrograms/ml), and containing 15% fetal calf serum and IL-2 (15% of conventional IL-2 from Advanced Biotechnologies, Inc., Silver Spring, MD, plus 20 unit/ml of recombinant IL-2 from Amgen Biochemicals, Thousand Oaks, CA) with the various concentrations of oligomers added. The number of viable cells were counted in a hemocytometer using the trypan blue exclusion method for day 7 following exposure to the virus. Filled columns represent non-virus exposed cells, and dotted columns represent virus exposed cells.
# The HIV cytopathic effect inhibition with oligodeoxynucleotides was performed with 18 hours of pretreatment of 2×10^5 target cells (ATH8 cells) with oligos prior to exposure to HTLV-IIIB. After this pretreatment, target cells were treated with Polybrene (2 micrograms/ml) for one hour. The target cells were then, respectively, exposed to HTLV-IIIB virus (generally 500 virions per cell in this series of experiments) for one hour. The 2×10^5 cells were then diluted to 2 ml with complete media containing IL-2 and various concentrations of oligos.
# The number of viable cells was counted in a hemocytometer using the trypan blue exclusion method on day 7 following exposure to the virus. Each set of data were obtained from simultaneously performed experiments so as to make a precise comparison among agents tested.
# The target cells (2×10^5 ATH8 cells per tube) were preincubated with the stated concentrations of S-dC14 for 24 hours and pretreated with 2 micrograms/ml of Polybrene for 45 minutes. After centrifugation, pelleted cells were exposed to the HIV (1000 virions per cell) for one hour. The cells were incubated in 2 ml of complete media containing IL-2, and the viable cells were counted on day 13.
# On day 13 after the exposure to the virus, viable cells were counted by the trypan blue dye exclusion method.
# [12] = system: HL60 cells; assay: DNA synthesis (3H-thymidine incorporation) in HL60 cells; format: cell-based; conditions: 50 uM, day 1
# Procedure: To obtain the results shown in FIG. 4, nonsense or antisense S-ODNs were added at a final concentration of 50 uM on day 0 to cells seeded at 3×10^5/ml. DNA synthesis was determined on day 1 by incubating cells with 1 uCi 3H-thymidine for 4 hours, after which time 10% trichloroacetic acid was added and acid precipitatable radioactivity was trapped on Sihatman glass fiber filters. The filters were subjected to liquid scintillation counting to determine levels of radioactivity.
# [13] = system: c-myc protein in HL60 cells; assay: c-myc protein reduction; format: cell-based
# [14] = system: HL60 cells; assay: HL60 cell growth (cell count); format: cell-based
substance,measurement,setting,value
(dC)n n = 28 [S-dC28],"changes in T4, HLA-DR, T8, T3, or Tac antigen",[1],no detectable changes
same,inhibition of specific binding of labelled virus to T4,[2],No inhibition
same,Ratio = t1/2 PSoligo/t1/2 POoligo,[3],15
same,2.7 Kb env-containing KPN I viral DNA fragment detection,"[4]; 1, 5 and 7 micromoles, lanes B-D, G-I",detected only in lanes A and F
same,inhibition of de novo synthesis of viral DNA,[4]; concentrations as low as / down to 1 micromolar,significantly inhibited the de novo synthesis of viral DNA; also recorded: complete inhibition
same,solubility in 1 M NaCl,[5],extremely insoluble in 1 M NaCl
same,"Nuclease susceptibility, t1/2",[6],> 27.7778 h
same,Ratio = t1/2 PSoligo/t1/2 POoligo,[6],> 1400
same,uptake (increase of radioactivity),[7],Significant increases of radioactivity
same,uptake (increase of radioactivity),[8],Significant increases of radioactivity
same,Ratio = t1/2 PSoligo/t1/2 POoligo,[9],2
same,Percentage of gag positive cells,"[10]; 5 micro M, 8 hours in culture",82%
same,Percentage of gag positive cells,"[10]; 5 micro M, 24 hours in culture",91%
same,Percentage of gag positive cells,"[10]; 5 micro M, 72 hours in culture",85%
same,Percentage of gag positive cells,"[10]; 5 micro M, 120 hours in culture",79%
same,Percentage of gag positive cells,"[10]; 10 micro M, 8 hours in culture",74%
same,Percentage of gag positive cells,"[10]; 10 micro M, 24 hours in culture",80%
same,Percentage of gag positive cells,"[10]; 10 micro M, 72 hours in culture",71%
same,Percentage of gag positive cells,"[10]; 10 micro M, 120 hours in culture",82%
same,Percentage of gag positive cells,"[10]; 25 micro M, 8 hours in culture",69%
same,Percentage of gag positive cells,"[10]; 25 micro M, 24 hours in culture",86%
same,Percentage of gag positive cells,"[10]; 25 micro M, 72 hours in culture",75%
same,Percentage of gag positive cells,"[10]; 25 micro M, 120 hours in culture",74%
same,gag protein positivity,"[10]; concentrations as high as 25 micromoles, 120 hours",failed to reduce gag protein positivity; also recorded: did not inhibit gag protein positivity
same,protection against the virus / antiviral activity,[11]; 0.5 micromoles,complete protection against the virus; also recorded: complete antiviral activity; also recorded: potent antiHIV activity
same,inhibition of viral replication and protection of ATH8 cells from HIV,"[11]; 3 micromoles, day 7",100%
same,in vitro therapeutic index (ratio of cytotoxic to effective concentration),[11]; compared with dideoxycytidine and dideoxyadenosine,comparable in vitro index to those of dideoxycytidine and dideoxyadenosine
same,anti-HIV activity (cytopathic effect),[11]; in words,most consistent and durable antiviral effects
dAACGTTGAGGGGCAT [S-myc-1],inhibition of DNA synthesis (3H-thymidine incorporation),[12],significant inhibition
same,Ratio = t1/2 PSoligo/t1/2 POoligo,[3],4
same,reduction of c-myc protein,[13],reduction of c-myc protein
same,Ratio = t1/2 PSoligo/t1/2 POoligo,[6],443
same,concentration relative to that required for the normal oligomer,[14],less than 1%
same,duration of antiproliferative effects,[14],up to three days
same,growth inhibition of HL60 cells at 0.1 micro M,[14]; 0.1 micro M,effective
same,effect on HL60 cell proliferation,[14]; in words,significant inhibition of cell proliferation
same,"Nuclease susceptibility, t1/2",[9],5.5 min
same,Ratio = t1/2 PSoligo/t1/2 POoligo,[9],9

# Source: patent US5264423A, “Inhibitors for replication of retroviruses and for the expression of oncogene products” (The United States of America as represented by the …, priority 1992, dated 1993)
